19 compounds from patent US7560229B2, “Methods of use of the enzymes of mycothiol synthesis” (priority 2002, dated 2009) can be followed below.

Values joined by “and” are separate entries in the source; they are usually repeats but may differ in a detail not shown here. Identical values can stand only once. Like-named read-outs stand apart in the source and are kept apart here. Marks after values point to notes of the source that are not given here.

Data set [1] deals with T1, M. tuberculosis MshC (Cys:GlcN-Ins ligase) (Mycobacterium tuberculosis, UniProt P9WJM9). It counts as biochemical. The settings on record: 0.1-5 mM, FIG. 16.
T1 sequence (P9WJM9 whole entry): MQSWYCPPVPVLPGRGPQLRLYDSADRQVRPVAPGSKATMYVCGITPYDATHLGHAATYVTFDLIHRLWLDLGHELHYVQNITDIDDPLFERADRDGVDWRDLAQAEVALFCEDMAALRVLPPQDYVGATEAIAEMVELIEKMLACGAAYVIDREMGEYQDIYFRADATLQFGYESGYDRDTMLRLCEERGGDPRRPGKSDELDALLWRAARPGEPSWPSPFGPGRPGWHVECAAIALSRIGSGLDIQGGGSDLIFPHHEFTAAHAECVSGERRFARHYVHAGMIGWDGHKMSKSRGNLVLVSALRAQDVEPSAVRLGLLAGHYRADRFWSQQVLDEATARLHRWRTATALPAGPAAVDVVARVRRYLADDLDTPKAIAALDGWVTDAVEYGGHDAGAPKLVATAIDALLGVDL
Data set [2] addresses T1, M. tuberculosis MshC (Cys:GlcN-Ins ligase). The settings on record: for activity as alternative substrate to Cys: 80 μM to 1.6 mM.
For data set [3] the target is unchanged. Format: biochemical.
The target is the same in data set [4]. Format: biochemical. The settings on record: 2, 10, 50 or 100 μM zinc chloride, FIG. 16.
Data set [5] has as its system M. smegmatis MSH deficient mutants (Tn1, Tn2, I64). It counts as cell-based.
Data set [6] has as its system N[C@@H](CS)C(=O)O. The data set is described as follows: purified protein, by the assay type. The settings on record: 37.0 °C.

Consider `c1cnc2c(c1)ccc1cccnc12` [1,10-phenanthroline], for which the “effect of metal chelation on enzyme activity” value in data set [1] is on record as “no significant loss of activity”.

On to `Nc1ncnc2c1ncn2[C@@H]1O[C@H](COP(=O)(O)OP(=O)(O)OP(=O)(O)O)[C@@H](O)[C@H]1O` [ATP], for which the “decline of reaction rate” value in data set [2] turned out to be 2.2 fold.

Consider `CC(=O)N[C@@H](CS)C(=O)O` [AcCys, N-acetylcysteine], for which, in data set [3], the “inhibition of ligase activity” value is “minor inhibition”. Besides, in data set [2], the relative spec. act. entry is listed as “≦0.24” and the “activity as alternative substrate to Cys” value was “Nor was significant activity detected”.

For `N[C@@H](CS)C(=O)O` [Cys, L-cysteine], in data set [2], the Specific activity result is reported as “^cSpecific activity 108 nmol min^−1 mg^−1”, the “apparent Vmax (L-Cys varied)” value was found to be 1450 ± 200 nmol/min/mg and the relative spec. act. entry is “(100)^c”.

With `N[C@@H](CS)C(=O)N[C@H]1[C@@H](OC2[C@H](O)[C@H](O)C(O)[C@H](O)[C@H]2O)O[C@H](CO)[C@@H](O)[C@@H]1O` (stereo partly drawn) [Cys-GlcN-Ins, 1D-myo-inosityl 2-L-cysteinylamido-2-deoxy-α-D-glucopyranoside], the inhibition (commonly the drop in the measured response relative to a control, in per cent) in data set [3] is listed as below 1.0%.

Take `N[C@H](CS)C(=O)O` [D-Cys]: in data set [3], the % inhibition (commonly the relative decrease from the control value, in per cent) worked out at 15 ± 8% and the “inhibition of ligase activity” value is “Only very minor inhibition”. Also, in data set [2], the relative spec. act. entry is reported as “≦0.7” and the “activity as alternative substrate to Cys” value is on record as “poor substrate”.

For the compound `N[C@H]1C(O)O[C@H](CO)[C@@H](O)[C@@H]1O` (stereo partly drawn) [D-GlcN, D-glucosamine], in data set [2], the “activity relative to GlcN-Ins” value was around 1% and the relative spec. act. was 1.2.

Turning to `N[C@H]1[C@@H](OC2[C@H](O)[C@H](O)C(O)[C@H](O)[C@H]2O)O[C@H](CO)[C@@H](O)[C@@H]1O` (stereo partly drawn) [GlcN-Ins, 1D-myo-inosityl 2-amino-2-deoxy-α-D-glucopyranoside], in data set [2], the “apparent Vmax (GlcN-Ins varied)” value was 1160 ± 120 nmol/min/mg. The Michaelis-Menten constant (Km) (in general, the concentration of substrate that gives half-maximal velocity) in data set [2] (read-out: apparent Km for GlcN-Ins) was found to be 280 ± 43 µM.

Take `C[C@H](N)C(=O)O` [L-alanine]: the “inhibition of ligase activity” value in data set [3] is recorded as “Only very minor inhibition”. Further, in data set [2], the relative spec. act. entry is on record as “≦0.016” and the “activity as alternative substrate to Cys” value is on record as “Nor was significant activity detected”.

`N[C@@H](CCS)C(=O)O` [L-homocysteine]: the “inhibition of ligase activity” value in data set [3] is “Only very minor inhibition”. Further, in data set [2], the relative spec. act. result was “≦0.2” and the “activity as alternative substrate to Cys” value was “Nor was significant activity detected”.

`N[C@@H](CO)C(=O)O` [L-serine]: in data set [3], the “inhibition of ligase activity” value is recorded as “Only very minor inhibition”. In data set [2], the relative spec. act. result is “≦0.008” and the “activity as alternative substrate to Cys” value is “Nor was significant activity detected”.

`CC[C@H](N)C(=O)O` [L-α-aminobutyric acid]: the “inhibition of ligase activity” value in data set [3] is “Only very minor inhibition”.

For `CC(=O)N[C@@H](CS)C(=O)N[C@H]1[C@@H](OC2[C@H](O)[C@H](O)C(O)[C@H](O)[C@H]2O)O[C@H](CO)[C@@H](O)[C@@H]1O` (stereo partly drawn) [MSH, 1D-myo-inosityl 2-(N-acetylcysteinyl)amido-2-deoxy-α-D-glucopyranoside], the “% inhibition” value in data set [3] is 4 ± 3% and 7 ± 5%. Also, the “inhibition of ligase activity” value in data set [3] (1 and 5 mM, physiologic levels) was “minimal inhibition”.

With `[Cl-].[Cl-].[Zn+2]` [Zn^2+, zinc chloride], the “effect of supplementation on enzyme activity” value in data set [4] is listed as “loss in activity”.

As for `NCCS` [cysteamine], in data set [3], the “inhibition of ligase activity” value is “best inhibitor” and the reduction in rate stood at 3 fold. In addition, in data set [2], the relative spec. act. result is recorded as “≦0.16”; the “activity as alternative substrate to Cys” value is “Neither β-mercaptopropionic acid nor cysteamine, derived from Cys by removal of the amino and carboxyl groups, respectively, produced evidence of reaction”.

As to `CC[C@@H](CO)NCCN[C@@H](CC)CO` [ethambutol], the “difference in sensitivity between mutants” value in data set [5] is “no significant difference”.

Regarding `NC(=O)c1cnccn1` [pyrazinamide], the “difference in sensitivity between mutants” value in data set [5] is on record as “no significant difference”.

Turning to `O=C(O)CCS` [β-mercaptopropionate, β-mercaptopropionic acid], the “inhibition of ligase activity” value in data set [3] is on record as “minor inhibition”. In addition, in data set [2], the relative spec. act. entry is reported as “≦0.004”; the “activity as alternative substrate to Cys” value is “Neither β-mercaptopropionic acid nor cysteamine, derived from Cys by removal of the amino and carboxyl groups, respectively, produced evidence of reaction”.

Consider “M. tuberculosis MshC (Cys:GlcN-Ins ligase) (Mycobacterium tuberculosis H37Rv)”, for which the Km in data set [6] was 70 ± 15 µM and 85 ± 20 µM.
